Experimental data as given in patent US20180273528A1 (LES LABORATOIRES SERVIER, priority 2015, published 2018).

Experiments:
[1] = biological target: T1, CLK1 (Homo sapiens, UniProt P49759); experiment: Kinase TR-FRET assay, CLK1; assay type: biochemical; settings: full-length human kinase, 10 μM ATP
T1 construct: full-length human kinases from Carna Biosciences; purchased Carna Biosciences 04-126
Protocol: Inhibition of the enzymatic activity of human kinases was evaluated in a Time-Resolved Fluorescence Resonance Energy Transfer (TR-FRET) assay in 384-well reaction plates. […] Test compounds of the invention were added in reaction buffer at a range of concentrations from 0.1 nM to 30 μM. Following addition of EDTA (Sigma E7889, 10 mM) to stop the reaction, Europium-labelled mouse monoclonal antibody recognizing phospho-Thr232 in MBP (Perkin Elmer TRF0201, 1 nM) was added.

[2] = biological target: T2, DYRK1B (Homo sapiens, UniProt Q9Y463); experiment: Kinase TR-FRET assay, DYRK1B; assay type: biochemical; settings: full-length human kinase, 10 μM ATP
T2 construct: full-length human kinases from Carna Biosciences; purchased Carna Biosciences 04-131
Procedure, shortened: (§1)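 Compounds tested at 0.1 nM to 30 μM in reaction buffer; reaction stopped with 10 mM EDTA. Phosphorylated MBP detected with 1 nM Europium-labelled anti-phospho-Thr232 antibody by TR-FRET.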

[3] = biological target: T3, DYRK1A (Homo sapiens, UniProt Q13627); experiment: Kinase TR-FRET assay, DYRK1A; assay type: biochemical; parameters: full-length, wild-type human DYRK1A (NM_001396) with an HA tag; expressed in transfected cells; host or cells: human U2-OS osteosarcoma cells, transient transfection of a pcDNA3.1 plasmid; settings: full-length human kinase, 10 μM ATP
Procedure, shortened: as §1

[4] = biological target: T4, CDK9 (Homo sapiens, UniProt P50750); experiment: Kinase TR-FRET assay, CDK9; assay type: biochemical; settings: full-length human kinase, 10 μM ATP
T4 construct: full-length human kinases from Carna Biosciences; purchased Carna Biosciences 04-110
Procedure, shortened: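 Full-length human CDK9 (0.9 ng/μl) incubated 100 min at room temperature with 10 μM ATP, 100 nM ULight-MBP peptide and compound (0.1 nM–30 μM) in 50 mM HEPES pH 7.4, 1 mM EGTA, 10 mM MgCl2, 2 mM DTT, 0.01% Tween20. Stopped with 10 mM EDTA, then 1 nM Eu-anti-phospho-Thr232 MBP antibody added for 1 h. TR-FRET read at 665/620 nm with 340 nm excitation.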

[5] = biological target: T5, His-TEV-DYRK1A Kinase domain (aa127-485) (Homo sapiens, UniProt Q13627); experiment: Kinase ADP assay (ADP Hunter), DYRK1A kinase domain; assay type: biochemical; settings: 20 μM ATP
T5 construct: His-TEV-DYRK1A Kinase domain (aa127-485); His tag (N); TEV protease cleavage site (N)
Procedure, shortened: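 Readout is ADP Hunter fluorescence at 590 nm, developed 20 min at 30 °C after the kinase step. That step ran 10 min at 30 °C in Hepes pH 7.4 (10 mM MgCl2, 1 mM EGTA, 0.02% Tween20) containing 20 μM ATP, 40 μM peptide and 20 nM enzyme plus compound.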

[6] = biological target: T3, DYRK1A; experiment: Cellular DYRK1 autophosphorylation assay in U2-OS cells; assay type: cell-based; parameters: full-length, wild-type human DYRK1A (NM_001396) with an HA tag; expressed in transfected cells; host or cells: human U2-OS osteosarcoma cells, transient transfection of a pcDNA3.1 plasmid; settings: U2-OS cells transfected with HA-tagged human DYRK1A, 5 hours exposure; read-out: IC50 (μM) P-Ser520-Dyrk1A -Cell assay
Procedure, shortened: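 IC50 derived from dose-response curves of phospho-Ser520-DYRK1A (blots normalised to total DYRK1A), quantified by either immunoblotting with chemiluminescence or Mesoscale electrochemiluminescent ELISA. Compounds applied to U2-OS cells across several concentrations for 5 hours.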

T1 sequence (P49759 1-526 isoform P49759-3): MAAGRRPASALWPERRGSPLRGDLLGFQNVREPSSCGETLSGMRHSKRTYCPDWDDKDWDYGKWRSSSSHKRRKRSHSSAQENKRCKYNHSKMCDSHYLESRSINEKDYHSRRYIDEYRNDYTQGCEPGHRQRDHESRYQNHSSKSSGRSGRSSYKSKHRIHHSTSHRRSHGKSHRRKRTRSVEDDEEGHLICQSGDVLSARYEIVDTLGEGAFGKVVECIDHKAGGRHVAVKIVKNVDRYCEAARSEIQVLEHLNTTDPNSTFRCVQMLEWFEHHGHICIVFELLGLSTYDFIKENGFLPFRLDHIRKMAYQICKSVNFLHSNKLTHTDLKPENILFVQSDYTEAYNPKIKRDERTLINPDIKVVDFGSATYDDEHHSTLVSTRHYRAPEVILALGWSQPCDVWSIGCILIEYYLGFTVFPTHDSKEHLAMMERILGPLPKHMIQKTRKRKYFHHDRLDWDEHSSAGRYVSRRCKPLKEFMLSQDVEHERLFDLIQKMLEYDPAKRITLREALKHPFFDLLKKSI
T4 sequence (P50750 whole entry): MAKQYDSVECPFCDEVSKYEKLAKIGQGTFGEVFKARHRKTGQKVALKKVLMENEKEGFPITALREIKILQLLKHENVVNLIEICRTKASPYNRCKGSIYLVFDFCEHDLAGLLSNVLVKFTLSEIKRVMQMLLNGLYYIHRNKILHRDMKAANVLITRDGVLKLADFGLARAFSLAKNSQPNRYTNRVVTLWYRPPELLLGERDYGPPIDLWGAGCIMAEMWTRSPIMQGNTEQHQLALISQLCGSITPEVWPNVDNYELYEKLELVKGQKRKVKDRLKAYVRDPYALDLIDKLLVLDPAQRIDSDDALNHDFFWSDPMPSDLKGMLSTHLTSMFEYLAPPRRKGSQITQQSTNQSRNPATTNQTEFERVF
T4 sequence (O60563 whole entry partner): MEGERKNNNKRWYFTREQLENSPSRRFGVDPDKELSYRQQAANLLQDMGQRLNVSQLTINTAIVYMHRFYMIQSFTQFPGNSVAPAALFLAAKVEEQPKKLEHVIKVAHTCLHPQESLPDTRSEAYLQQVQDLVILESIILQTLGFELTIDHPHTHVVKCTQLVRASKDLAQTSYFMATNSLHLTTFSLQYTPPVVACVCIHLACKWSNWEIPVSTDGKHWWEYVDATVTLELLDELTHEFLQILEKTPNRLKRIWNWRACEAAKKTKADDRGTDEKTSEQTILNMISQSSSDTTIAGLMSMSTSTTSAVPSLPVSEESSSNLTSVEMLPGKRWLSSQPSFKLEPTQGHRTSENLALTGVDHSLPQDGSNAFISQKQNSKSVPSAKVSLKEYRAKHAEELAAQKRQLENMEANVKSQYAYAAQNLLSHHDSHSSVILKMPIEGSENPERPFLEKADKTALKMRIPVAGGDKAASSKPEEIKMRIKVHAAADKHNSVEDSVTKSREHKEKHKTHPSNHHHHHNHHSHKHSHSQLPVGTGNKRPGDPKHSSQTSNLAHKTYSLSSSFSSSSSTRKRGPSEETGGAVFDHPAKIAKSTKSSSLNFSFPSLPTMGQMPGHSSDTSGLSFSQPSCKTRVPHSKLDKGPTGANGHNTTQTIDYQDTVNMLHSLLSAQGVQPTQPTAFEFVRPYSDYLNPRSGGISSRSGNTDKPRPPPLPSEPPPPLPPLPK
T2 sequence (Q9Y463 whole entry): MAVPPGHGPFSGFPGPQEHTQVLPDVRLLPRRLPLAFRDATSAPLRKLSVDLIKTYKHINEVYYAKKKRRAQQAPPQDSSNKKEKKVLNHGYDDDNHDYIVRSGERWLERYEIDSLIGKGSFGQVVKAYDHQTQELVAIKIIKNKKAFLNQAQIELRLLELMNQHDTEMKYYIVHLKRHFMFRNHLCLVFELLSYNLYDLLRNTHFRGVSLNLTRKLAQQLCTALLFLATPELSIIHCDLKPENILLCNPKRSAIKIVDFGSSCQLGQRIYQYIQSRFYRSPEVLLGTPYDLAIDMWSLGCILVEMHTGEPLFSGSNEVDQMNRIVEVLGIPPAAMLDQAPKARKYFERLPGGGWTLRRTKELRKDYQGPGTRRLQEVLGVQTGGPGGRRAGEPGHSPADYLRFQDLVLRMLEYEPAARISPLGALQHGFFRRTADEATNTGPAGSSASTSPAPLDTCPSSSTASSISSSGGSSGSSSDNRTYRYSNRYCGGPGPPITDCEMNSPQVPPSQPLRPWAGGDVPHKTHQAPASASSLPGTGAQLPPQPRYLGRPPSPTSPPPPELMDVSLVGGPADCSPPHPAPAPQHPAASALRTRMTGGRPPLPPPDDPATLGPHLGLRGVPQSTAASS

Row | SMILES | IC50 [1] [µM] | IC50 [2] [µM] | IC50 [3] [µM] | IC50 [4] [µM] | IC50 [5] [µM] | IC50 [6] [µM]
1 | Cc1nc2ccc(-c3cc(N)nc(N)c3)nc2n1C[C@H]1C[C@@H]1c1ccccc1 (single isomer, unassigned) [Example 109] | 0.025 | 0.015 | 0.01 | > 3 | 0.03 | 0.22
2 | Cc1nc2ccc(-c3cc(N)nc(N)c3)nc2n1C[C@@H]1C[C@H]1c1ccccc1 (single isomer, unassigned) [Example 110] | 0.02 |  |  |  | 0.019 | 0.042
3 | Cc1nc2ccc(-c3cc(N)nc(N)c3)nc2n1CCC1CCOCC1 [Example 78, 4-{2-methyl-3-[2-(tetrahydro-2H-pyran-4-yl)ethyl]-3H-imidazo[4,5-b]pyridin-5-yl}pyridine-2,6-diamine] | 0.018 |  |  |  | 0.025 | 0.133
4 | Cc1nc2ccc(-c3cc(N)nc(N)c3)nc2n1CCc1ccccc1C(F)(F)F [Example 79, 4-(2-methyl-3-{2-[2-(trifluoromethyl)phenyl]ethyl}-3H-imidazo[4,5-b]pyridin-5-yl)pyridine-2,6-diamine] | 0.014 |  |  |  | 0.021 | 0.068
5 | CCOc1cccc(CCn2c(C)nc3ccc(-c4cc(N)nc(N)c4)nc32)c1 [Example 90, 4-{3-[2-(3-ethoxyphenyl)ethyl]-2-methyl-3H-imidazo[4,5-b]pyridin-5-yl}pyridine-2,6-diamine] | 0.016 |  |  |  | 0.015 | 0.129
6 | Cc1nc2ccc(-c3cc(N)nc(N)c3)nc2n1CC1CC1c1ccccc1 (centres unmarked) [Example 97, 4-{2-methyl-3-[(2-phenylcyclopropyl)methyl]-3H-imidazo[4,5-b]pyridin-5-yl}pyridine-2,6-diamine] | 0.021 |  |  |  | 0.015 | 0.097
7 | COc1ccc2c(c1)CC(n1c(C)nc3ccc(-c4cc(N)nc(N)c4)nc31)C2 (centres unmarked) [Example 98, 4-[3-(5-methoxy-2,3-dihydro-1H-inden-2-yl)-2-methyl-3H-imidazo[4,5-b]pyridin-5-yl]pyridine-2,6-diamine] | 0.015 | 0.009 | 0.004 |  | 0.007 | 0.019
8 | Cc1nc2ccc(-c3cc(N)nc(N)c3)nc2n1CCC(F)(F)F [Example 108, 4-[2-methyl-3-(3,3,3-trifluoropropyl)-3H-imidazo[4,5-b]pyridin-5-yl]pyridine-2,6-diamine] | 0.026 |  |  |  | 0.017 | 0.109
9 | Cc1nc2ccc(-c3cc(N)nc(N)c3)nc2n1CC1Cc2ccccc2C1 [Example 114, 4-[3-(2,3-dihydro-1H-inden-2-ylmethyl)-2-methyl-3H-imidazo[4,5-b]pyridin-5-yl]pyridine-2,6-diamine] | 0.019 | 0.009 | 0.005 |  | 0.005 | 0.039
10 | CCCCc1nc2ccc(-c3cc(N)nc(N)c3)nc2n1C1CCCC1 [Example 145, 4-(2-butyl-3-cyclopentyl-3H-imidazo[4,5-b]pyridin-5-yl)pyridine-2,6-diamine] | 0.115 |  |  |  | 0.03 | 0.171
11 | Cc1nc2ccc(-c3cc(N)nc(N)c3)nc2n1CCOc1cccc(Cl)n1 [Example 165, 4-(3-{2-[(6-chloropyridin-2-yl)oxy]ethyl}-2-methyl-3H-imidazo[4,5-b]pyridin-5-yl)pyridine-2,6-diamine] | 0.015 | 0.005 | 0.003 |  | 0.009 | 0.026
12 | Cc1nc2ccc(-c3cc(N)nc(N)c3)nc2n1CCOc1ccc(F)cc1 [Example 198, 4-{3-[2-(4-fluorophenoxy)ethyl]-2-methyl-3H-imidazo[4,5-b]pyridin-5-yl}pyridine-2,6-diamine] | 0.017 |  |  |  | 0.025 | 0.092
13 | COc1cccc(OCCn2c(C)nc3ccc(-c4cc(N)nc(N)c4)nc32)c1 [Example 202, 4-{3-[2-(3-methoxyphenoxy)ethyl]-2-methyl-3H-imidazo[4,5-b]pyridin-5-yl}pyridine-2,6-diamine] | 0.018 |  |  |  | 0.023 | 0.18
14 | Cc1nc2ccc(-c3cc(N)nc(N)c3)nc2n1CCOc1ccc(Cl)cc1 [Example 207, 4-{3-[2-(4-chlorophenoxy)ethyl]-2-methyl-3H-imidazo[4,5-b]pyridin-5-yl}pyridine-2,6-diamine] | 0.021 |  |  |  | 0.026 | 0.12

Further molecules by falling IC50 [1], results first:

Row | IC50 [1] [µM] | IC50 [2] [µM] | IC50 [3] [µM] | IC50 [4] [µM] | IC50 [5] [µM] | IC50 [6] [µM] | SMILES
15 | 0.218 | 0.005 |  | > 10 | 0.02 | 0.143 | CCCCn1c(CCC)nc2ccc(-c3cc(N)nc(N)c3)nc21 [Example 161, 4-(3-butyl-2-propyl-3H-imidazo[4,5-b]pyridin-5-yl)pyridine-2,6-diamine]
16 | 0.083 | 0.013 | 0.016 | > 3 | 0.074 |  | Cc1nc2ccc(-c3cc(N)nc(N)c3)nc2n1C[C@H](C)Oc1ccccn1 (single isomer, unassigned) [Example 174]
17 | 0.042 |  |  |  | 0.01 | 0.262 | Cn1c(C#N)nc2ccc(-c3cc(N)nc(N)c3)nc21 [Example 227, 5-(2,6-diaminopyridin-4-yl)-3-methyl-3H-imidazo[4,5-b]pyridine-2-carbonitrile]
18 | 0.037 | 0.007 | 0.008 | > 3 | 0.012 | 0.111 | Cc1nc2ccc(-c3cc(N)nc(N)c3)nc2n1C[C@H](C)Oc1ccccc1 (single isomer, unassigned) [Example 107]
19 | 0.021 |  |  |  | 0.012 |  | C=CCn1c(C#N)nc2ccc(-c3cc(N)nc(N)c3)nc21 [Example 225, 5-(2,6-diaminopyridin-4-yl)-3-(prop-2-en-1-yl)-3H-imidazo[4,5-b]pyridine-2-carbonitrile]
20 | 0.02 |  |  |  | 0.009 | 0.097 | CCn1c(C#N)nc2ccc(-c3cc(N)nc(N)c3)nc21 [Example 223, 5-(2,6-diaminopyridin-4-yl)-3-ethyl-3H-imidazo[4,5-b]pyridine-2-carbonitrile]
21 | 0.02 |  |  |  | 0.009 | 0.057 | N#Cc1nc2ccc(-c3cc(N)nc(N)c3)nc2n1C1CC1 [Example 224, 3-cyclopropyl-5-(2,6-diaminopyridin-4-yl)-3H-imidazo[4,5-b]pyridine-2-carbonitrile]
22 | 0.016 |  |  |  | 0.017 | 0.148 | Cc1nc2ccc(-c3cc(N)nc(N)c3)nc2n1CCOc1ccccc1F [Example 203, 4-{3-[2-(2-fluorophenoxy)ethyl]-2-methyl-3H-imidazo[4,5-b]pyridin-5-yl}pyridine-2,6-diamine]
23 | 0.015 |  |  |  | 0.021 | 0.094 | COc1ccccc1CCn1c(C)nc2ccc(-c3cc(N)nc(N)c3)nc21 [Example 81, 4-{3-[2-(2-methoxyphenyl)ethyl]-2-methyl-3H-imidazo[4,5-b]pyridin-5-yl}pyridine-2,6-diamine]
24 | 0.015 | 0.006 | 0.002 |  | 0.011 | 0.032 | Cc1nc2ccc(-c3cc(N)nc(N)c3)nc2n1CCOc1cccc(Br)n1 [Example 168, 4-(3-{2-[(6-bromopyridin-2-yl)oxy]ethyl}-2-methyl-3H-imidazo[4,5-b]pyridin-5-yl)pyridine-2,6-diamine]
25 | 0.014 |  |  |  | 0.006 | 0.006 | Cc1nc2ccc(-c3cc(N)nc(N)c3)nc2n1C1CC(c2ccccc2)C1 (centres unmarked) [Example 100, 4-[2-methyl-3-(3-phenylcyclobutyl)-3H-imidazo[4,5-b]pyridin-5-yl]pyridine-2,6-diamine]
